Reference: patent publication US20110237528A1, “COMPOSITIONS AND METHODS COMPRISING IMIDAZOLE AND TRIAZOLE DERIVATIVES” (INSTITUTE FOR ONEWORLD HEALTH, priority 2008, published 2011)

Target: T1, CFTR in the CHO-CFTR cell line (Homo sapiens, UniProt P13569)
T1 construct: expressed in transfected cells; host or cells: CHO (CHO-CFTR cell line)
Test: CHO-CFTR assay (FLIPR assay, same conditions as T84 assay)
Format: cell-based
Settings: average of at least 2 runs unless marked n = 1

T1 sequence (P13569 whole entry): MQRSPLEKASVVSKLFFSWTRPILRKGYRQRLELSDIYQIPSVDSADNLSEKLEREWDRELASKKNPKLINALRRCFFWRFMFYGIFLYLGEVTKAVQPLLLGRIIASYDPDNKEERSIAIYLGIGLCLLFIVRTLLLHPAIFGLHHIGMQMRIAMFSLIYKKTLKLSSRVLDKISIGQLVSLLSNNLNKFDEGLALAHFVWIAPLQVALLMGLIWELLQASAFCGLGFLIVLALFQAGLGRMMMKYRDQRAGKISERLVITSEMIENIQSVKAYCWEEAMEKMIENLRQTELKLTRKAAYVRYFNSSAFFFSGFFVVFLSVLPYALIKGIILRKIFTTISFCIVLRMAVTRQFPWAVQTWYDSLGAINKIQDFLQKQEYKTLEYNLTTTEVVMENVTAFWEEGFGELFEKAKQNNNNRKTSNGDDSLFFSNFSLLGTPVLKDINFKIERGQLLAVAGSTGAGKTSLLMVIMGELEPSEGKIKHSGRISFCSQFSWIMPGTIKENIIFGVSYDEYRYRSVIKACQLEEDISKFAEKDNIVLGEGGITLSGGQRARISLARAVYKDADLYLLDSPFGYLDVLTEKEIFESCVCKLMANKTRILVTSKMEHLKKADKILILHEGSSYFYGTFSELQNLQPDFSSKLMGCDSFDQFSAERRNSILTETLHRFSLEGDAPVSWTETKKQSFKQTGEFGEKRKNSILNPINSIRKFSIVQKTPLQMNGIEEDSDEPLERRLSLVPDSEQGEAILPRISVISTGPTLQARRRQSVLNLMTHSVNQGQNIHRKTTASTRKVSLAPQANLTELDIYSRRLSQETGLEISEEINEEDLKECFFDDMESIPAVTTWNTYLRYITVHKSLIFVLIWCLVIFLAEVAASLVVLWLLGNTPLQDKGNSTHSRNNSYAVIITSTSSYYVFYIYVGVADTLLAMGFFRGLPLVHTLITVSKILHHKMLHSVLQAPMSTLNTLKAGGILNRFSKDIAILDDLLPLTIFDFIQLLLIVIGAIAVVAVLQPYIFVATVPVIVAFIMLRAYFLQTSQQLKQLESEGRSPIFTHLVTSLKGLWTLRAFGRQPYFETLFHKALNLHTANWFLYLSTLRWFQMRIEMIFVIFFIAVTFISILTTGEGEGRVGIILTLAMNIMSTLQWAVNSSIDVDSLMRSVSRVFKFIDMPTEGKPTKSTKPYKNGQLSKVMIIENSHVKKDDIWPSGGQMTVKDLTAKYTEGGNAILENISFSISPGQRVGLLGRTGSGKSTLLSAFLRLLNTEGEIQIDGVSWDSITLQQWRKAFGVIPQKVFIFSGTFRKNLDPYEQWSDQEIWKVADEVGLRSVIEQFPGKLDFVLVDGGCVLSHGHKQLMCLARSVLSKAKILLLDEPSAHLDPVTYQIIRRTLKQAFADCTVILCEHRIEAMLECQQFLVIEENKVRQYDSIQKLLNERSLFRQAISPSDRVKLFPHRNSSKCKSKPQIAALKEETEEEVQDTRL

SMILES	IC50 [µM]
Cc1noc(C)c1CCNC(=O)c1ncn(-c2cc(Cl)c(O)c(Cl)c2)n1 [Compound 74, 1-(3,5-dichloro-4-hydroxyphenyl)-N-(2-(3,5-dimethylisoxazol-4-yl)ethyl)-1H-1,2,4-triazole-3-carboxamide]	≥ 50
CC(C)(C)CCN(Cc1cccc(OC(F)(F)F)c1)C(=O)c1ncn(-c2cc(Cl)c(O)c(Cl)c2)n1 [Compound 77, 1-(3,5-dichloro-4-hydroxyphenyl)-N-(3,3-dimethylbutyl)-N-(3-(trifluoromethoxy)benzyl)-1H-1,2,4-triazole-3-carboxamide]	≥ 50
CC(C)(C)CCN(Cc1cccc(C(F)(F)F)c1)C(=O)c1ncn(-c2cc(Cl)c(O)c(Cl)c2)n1 [Compound 79, 1-(3,5-dichloro-4-hydroxyphenyl)-N-(3,3-dimethylbutyl)-N-(3-(trifluoromethyl)benzyl)-1H-1,2,4-triazole-3-carboxamide]	≥ 50
O=C(c1ncn(-c2cc(Cl)c(O)c(Cl)c2)n1)N(Cc1ccccc1)Cc1cccc(OC(F)(F)F)c1 [Compound 84, N-benzyl-1-(3,5-dichloro-4-hydroxyphenyl)-N-(3-(trifluoromethoxy)benzyl)-1H-1,2,4-triazole-3-carboxamide]	≥ 50
O=C(c1ncn(-c2cc(Cl)c(O)c(Cl)c2)n1)N(Cc1ccccc1)Cc1cccc(C(F)(F)F)c1 [Compound 85, N-benzyl-1-(3,5-dichloro-4-hydroxyphenyl)-N-(3-(trifluoromethyl)benzyl)-1H-1,2,4-triazole-3-carboxamide]	≥ 50
C=CCN(Cc1ccc(C(C)C)cc1)C(=O)c1ncn(-c2cc(Cl)c(O)c(Cl)c2)n1 [Compound 101, N-allyl-1-(3,5-dichloro-4-hydroxyphenyl)-N-(4-isopropylbenzyl)-1H-1,2,4-triazole-3-carboxamide]	≥ 50
COCCOCCOCCOCCN(Cc1ccc(Cl)c(Cl)c1)C(=O)c1ncn(-c2cc(Cl)c(O)c(Cl)c2)n1 [Compound 111, 1-(3,5-dichloro-4-hydroxyphenyl)-N-(3,4-dichlorobenzyl)-N-(2,5,8,11-tetraoxatridecan-13-yl)-1H-1,2,4-triazole-3-carboxamide]	≥ 50
COCCOCCOCCN(Cc1cccc(OC(F)(F)F)c1)C(=O)c1ncn(-c2cc(Cl)c(O)c(Cl)c2)n1 [Compound 113, 1-(3,5-dichloro-4-hydroxyphenyl)-N-(2-(2-(2-methoxyethoxy)ethoxy)ethyl)-N-(3-(trifluoromethoxy)benzyl)-1H-1,2,4-triazole-3-carboxamide]	≥ 50
COCCOCCOCCOCCN(Cc1cccc(OC(F)(F)F)c1)C(=O)c1ncn(-c2cc(Cl)c(O)c(Cl)c2)n1 [Compound 115, 1-(3,5-dichloro-4-hydroxyphenyl)-N-(2,5,8,11-tetraoxatridecan-13-yl)-N-(3-(trifluoromethoxy)benzyl)-1H-1,2,4-triazole-3-carboxamide]	≥ 50
CC(C)(C)c1ccc(CN(CCOCCOCCOCCOCCOCCOCc2ccccc2)C(=O)c2ncn(-c3cc(Cl)c(O)c(Cl)c3)n2)cc1 [Compound 116, N-(4-tert-butylbenzyl)-1-(3,5-dichloro-4-hydroxyphenyl)-N-(1-phenyl-2,5,8,11,14,17-hexaoxanonadecan-19-yl)-1H-1,2,4-triazole-3-carboxamide]	≥ 50
COCCOCCOCCOCCOCCOCCOCCOCCN(Cc1ccc(C(C)(C)C)cc1)C(=O)c1ncn(-c2cc(Cl)c(O)c(Cl)c2)n1 [Compound 117, N-(4-tert-butylbenzyl)-1-(3,5-dichloro-4-hydroxyphenyl)-N-(2,5,8,11,14,17,20,23-octaoxapentacosan-25-yl)-1H-1,2,4-triazole-3-carboxamide]	≥ 50
COCCOCCOCCOCCOCCN(Cc1ccc(C(C)(C)C)cc1)C(=O)c1ncn(-c2cc(Cl)c(O)c(Cl)c2)n1 [Compound 118, N-(4-tert-butylbenzyl)-1-(3,5-dichloro-4-hydroxyphenyl)-N-(2,5,8,11,14-pentaoxahexadecan-16-yl)-1H-1,2,4-triazole-3-carboxamide]	≥ 50
COCCOCCOCCOCCN(Cc1ccc(C(C)(C)C)cc1)C(=O)c1ncn(-c2cc(Cl)c(O)c(Cl)c2)n1 [Compound 120, N-(4-tert-butylbenzyl)-1-(3,5-dichloro-4-hydroxyphenyl)-N-(2,5,8,11-tetraoxatridecan-13-yl)-1H-1,2,4-triazole-3-carboxamide]	≥ 50
COCCOCCOCCOCCOCCOCCOCCOCCON(Cc1ccc(Oc2ccccc2)cc1)C(=O)c1ncn(-c2cc(Cl)c(O)c(Cl)c2)n1 [Compound 121, N-(2,5,8,11,14,17,20,23-octaoxapentacosan-25-yloxy)-1-(3,5-dichloro-4-hydroxyphenyl)-N-(4-phenoxybenzyl)-1H-1,2,4-triazole-3-carboxamide]	≥ 50
COCCOCCOCCOCCON(Cc1ccc(Oc2ccccc2)cc1)C(=O)c1ncn(-c2cc(Cl)c(O)c(Cl)c2)n1 [Compound 122, N-(2,5,8,11-tetraoxatridecan-13-yloxy)-1-(3,5-dichloro-4-hydroxyphenyl)-N-(4-phenoxybenzyl)-1H-1,2,4-triazole-3-carboxamide]	≥ 50
COCCOCCOCCON(Cc1ccc(Oc2ccccc2)cc1)C(=O)c1ncn(-c2cc(Cl)c(O)c(Cl)c2)n1 [Compound 123, 1-(3,5-dichloro-4-hydroxyphenyl)-N-(2-(2-(2-methoxyethoxy)ethoxy)ethoxy)-N-(4-phenoxybenzyl)-1H-1,2,4-triazole-3-carboxamide]	≥ 50
CON(Cc1ccc(C(C)C)cc1)C(=O)c1ncn(-c2cc(Cl)c(O)c(Cl)c2)n1 [Compound 128, 1-(3,5-dichloro-4-hydroxyphenyl)-N-(4-isopropylbenzyl)-N-methoxy-1H-1,2,4-triazole-3-carboxamide]	≥ 50

System: cholera toxin (CTX)-induced net fluid secretion in small intestine loops
Test: not given
Parameters: species or system mice (CD1 strain)
Settings: mouse, in vivo

SMILES	% inhibition @ 100 μg dose (closed loop % inhibition) [%]
O=C(NC(c1ccccc1)c1ccccc1)c1ncn(-c2cc(Cl)c(O)c(Cl)c2)n1 [Compound 2, N-benzhydryl-1-(3,5-dichloro-4-hydroxyphenyl)-1H-1,2,4-triazole-3-carboxamide]	42.9
O=C(NCCC(c1ccccc1)c1ccccc1)c1ncn(-c2cc(Cl)c(O)c(Cl)c2)n1 [Compound 31, 1-(3,5-dichloro-4-hydroxyphenyl)-N-(3,3-diphenylpropyl)-1H-1,2,4-triazole-3-carboxamide]	45.1
O=C(NCc1ccc(Cl)c(Cl)c1)c1ncn(-c2cc(Cl)c(O)c(Cl)c2)n1 [Compound 37, 1-(3,5-dichloro-4-hydroxyphenyl)-N-(3,4-dichlorobenzyl)-1H-1,2,4-triazole-3-carboxamide]	76.9
O=C(NCc1ccc(Oc2ccccc2)cc1)c1ncn(-c2cc(Cl)c(O)c(Cl)c2)n1 [Compound 49, 1-(3,5-dichloro-4-hydroxyphenyl)-N-(4-phenoxybenzyl)-1H-1,2,4-triazole-3-carboxamide]	42.3
Oc1c(Cl)cc(-n2cnc(C(O)(c3cc(F)cc(F)c3)c3cc(F)cc(F)c3)n2)cc1Cl [Compound 52, 4-(3-(bis(3,5-difluorophenyl)(hydroxy)methyl)-1H-1,2,4-triazol-1-yl)-2,6-dichlorophenol]	55.3
O=C(NCc1ccc(Oc2ccc(F)c(C(F)(F)F)c2)cc1)c1ncn(-c2cc(Cl)c(O)c(Cl)c2)n1 [Compound 67, 1-(3,5-dichloro-4-hydroxyphenyl)-N-(4-(4-fluoro-3-(trifluoromethyl)phenoxy)benzyl)-1H-1,2,4-triazole-3-carboxamide]	88.2
CC(C)c1ccc(CC(NC(=O)c2ncn(-c3cc(Cl)c(O)c(Cl)c3)n2)C(=O)C(C)(C)C)cc1 (stereo not drawn) [Compound 134, 1-(3,5-dichloro-4-hydroxyphenyl)-N-(1-(4-isopropylphenyl)-4,4-dimethyl-3-oxopentan-2-yl)-1H-1,2,4-triazole-3-carboxamide]	71.7
